Data taken from patent US9464048B2, “5-oxo-ETE receptor antagonist compounds” (THE ROYAL INSTITUTION FOR THE ADVANCEMENT OF …, priority 2009, dated 2016).

Experiments:
Assay type in all cases: cell-based
OXE receptor [1] = target: T1, OXE receptor (Homo sapiens, UniProt Q8TDS5); assay: Neutrophil migration (chemotaxis) induced by 5-oxo-ETE, microchemotaxis chambers; parameters: Human granulocytes 95% neutrophils) are prepared from whole blood; endogenous in cells; host or cells: human blood granulocytes (>=95% neutrophils); details: 5-oxo-ETE 100 nM; human granulocytes; Table 2
T1 sequence (Q8TDS5 whole entry): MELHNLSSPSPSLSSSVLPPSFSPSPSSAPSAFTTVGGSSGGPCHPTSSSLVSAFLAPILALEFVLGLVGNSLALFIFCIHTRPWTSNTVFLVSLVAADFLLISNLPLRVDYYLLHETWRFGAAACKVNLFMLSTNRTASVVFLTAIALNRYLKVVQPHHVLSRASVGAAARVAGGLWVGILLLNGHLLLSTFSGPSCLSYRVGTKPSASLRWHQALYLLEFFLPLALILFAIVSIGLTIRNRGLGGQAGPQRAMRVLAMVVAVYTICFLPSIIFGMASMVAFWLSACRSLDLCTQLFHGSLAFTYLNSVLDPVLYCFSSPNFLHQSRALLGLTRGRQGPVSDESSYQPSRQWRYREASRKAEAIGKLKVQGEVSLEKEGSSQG
Experimental: Cell migration is measured by the modified Boyden technique using 48-well microchemotaxis chambers and Sartorius cellulose nitrate filters (8 μm pore size; 140 μm thickness) as described previously (Powell et al., J Immunol 156: 336 (1996)). Granulocytes (≧95% neutrophils) are prepared as described above. Immediately prior to use the filters are soaked in PBS containing calcium (1 mM), magnesium (1 mM), and 0.3% BSA. Either vehicle (PBS containing Ca^++, Mg^++, and 0.3% BSA) or vehicle containing 5-oxo-ETE (100 nM final concentration) is added to the bottom well in a volume of 30 μl, whereas neutrophils (150,000 cells in 55 μl PBS containing Ca^++, Mg^++ and 0.4% ovalbumin) and either vehicle or various concentrations of a 5-oxo-ETE antagonist are added to each of the top wells. The chambers are incubated for 2 h at 37° C. in 5% CO2 and humidified air. […] The filters are mounted on slides with coverslips using Permount and the numbers of cells on the bottom surfaces of the filters are counted in 5 different fields at a magnification of 400× for each incubation, each of which is performed in triplicate. In cases in which there are large numbers of cells on the bottom surfaces of the filters only quarter or half fields are counted and the results corrected accordingly.

[2] = system: calcium mobilization in response to LTB4; assay: LTB4-induced calcium mobilization in human neutrophils; details: compound 1 μM, LTB4 10 nM, FIG. 2
Experimental: Human granulocytes 95% neutrophils) are prepared from whole blood using Dextran 500 to remove red blood cells, followed by centrifugation over Ficoll-Paque to remove mononuclear cells and hypotonic lysis of any remaining red blood cells. After centrifugation the granulocytes are suspended in Ca^++/Mg^++-free phosphate-buffered saline (PBS). Granulocytes (10^7 cells/nil) are incubated with the acetoxymethyl ester of indo-1 ([…]) for 30 min, followed by washing twice with PBS^− and resuspension in the same medium to obtain a final cell concentration of 3.22×10^6 cells/ml. Five minutes prior to commencing data acquisition, Ca^++ and Mg^++ are added to give final concentrations of 1.8 and 1 mM, respectively. Calcium measurements are performed at 37° C. using a spectrofluorometer equipped with a temperature-controlled cuvette holder and a magnetic stirrer. The excitation and emission wavelengths are 331 nm and 410 nm, respectively. Following stabilization of the baseline, fluorescence is measured for 1 min, prior to the addition of either vehicle or various concentrations of a potential 5-oxo-ETE antagonist. […] Fmax is determined from fluorescence measurements after the addition of digitonin, whereas Fmin is determined after determination of autofluorescence as described in the literature (Gelfand et al, J. Biol. Chem. 261:11520 (1986)). […]

OXE receptor [3] = target: T1, OXE receptor; assay: 5-oxo-ETE-induced actin polymerization (F-actin levels) in eosinophils; parameters: endogenous in cells; details: 5-oxo-ETE 10 nM, Table 2
Experimental: F-actin levels in eosinophils are measured using unfractionated leukocytes, prepared as described above. Leukocytes (5×10^7 cells/ml) are treated with PC5-labeled mouse anti-human CD16 (10 μl/10^6 cells; Beckman-Coulter) for 30 min on ice. PBS (2 ml/10^6 cells) is then added and the mixture centrifuged at 200×g for 10 min. The pellet is resuspended in ice cold PBS containing Ca^++ (1.8 mM) and Mg^++ (1 mM) to give a concentration of 5×10^6 cells/ml. Aliquots (90 μl) of the leukocyte suspension are first incubated at 37° C. with either vehicle (10 μl PBS containing Ca^++ and Mg^++ and 0.1% BSA) or vehicle containing a 5-oxo-ETE antagonist. After 5 min, either vehicle or vehicle containing 5-oxo-ETE (final concentration, 10 nM) is added and the incubation continued for a further 20 s. The incubations are then terminated by addition of formaldehyde (37%) to give a final concentration of 8.5%. […] F-actin levels are measured by flow cytometry in eosinophils, which are gated based on high side scatter and low staining with anti-CD16. F-actin levels in the eosinophil population are assessed on the basis of fluorescence due to staining with NBD-phallacidin.

OXE receptor [4] = target: T1, OXE receptor; assay: 5-oxo-ETE-induced calcium mobilization in human granulocytes; parameters: Human granulocytes 95% neutrophils) are prepared from whole blood; endogenous in cells; host or cells: human blood granulocytes (>=95% neutrophils)
Experimental: Primary Screening for Antagonist Activity: Calcium Mobilization in Human Granulocytes
Human granulocytes 95% neutrophils) are prepared from whole blood using Dextran 500 to remove red blood cells, followed by centrifugation over Ficoll-Paque to remove mononuclear cells and hypotonic lysis of any remaining red blood cells. After centrifugation the granulocytes are suspended in Ca^++/Mg^++-free phosphate-buffered saline (PBS). Granulocytes (10^7 cells/nil) are incubated with the acetoxymethyl ester of indo-1 ([…]) for 30 min, followed by washing twice with PBS^− and resuspension in the same medium to obtain a final cell concentration of 3.22×10^6 cells/ml. Five minutes prior to commencing data acquisition, Ca^++ and Mg^++ are added to give final concentrations of 1.8 and 1 mM, respectively. Calcium measurements are performed at 37° C. using a spectrofluorometer equipped with a temperature-controlled cuvette holder and a magnetic stirrer. The excitation and emission wavelengths are 331 nm and 410 nm, respectively. Following stabilization of the baseline, fluorescence is measured for 1 min, prior to the addition of either vehicle or various concentrations of a potential 5-oxo-ETE antagonist. Two min later, 5-oxo-ETE (10 nM) is added, followed 1 min later by digitonin (final concentration 0.1%). Data acquisition is terminated after a further 0.5 min. In some cases LTB4 (10 nM) is added 2 min after 5-oxo-ETE, followed 0.5 min later by addition of digitonin. Fmax is determined from fluorescence measurements after the addition of digitonin, whereas Fmin is determined after determination of autofluorescence as described in the literature (Gelfand et al, J. Biol. Chem. 261:11520 (1986)). A dissociation constant of 250 nM for the indo-1/Ca^++ complex is used to calculate [Ca^++]i. […] Measurement of Actin Polymerization in Eosinophils

[5] = 5-oxo-ETE 10 nM, human granulocytes, Table 2, read-out: IC50 (μM) Ca^++

IC50 (OXE receptor [1])	IC50 (OXE receptor [3])	IC50 (OXE receptor [4]; [5])	effect on calcium mobilization in response to 5-oxo-ETE (OXE receptor [4]; compound 1 μM, 5-oxo-ETE 10 nM, human neutrophils, FIG. 2)	IC50 (OXE receptor [4]; Table 6, carboxyl side chain variation, readout not given, values match Ca^++, read-out: IC50)	IC50 (OXE receptor [4]; Table 7, alkyl variation, readout not given, values match Ca^++, read-out: IC50)	SMILES	effect on calcium mobilization in response to LTB4 [2]
0.11 µM	0.072 µM	0.025 µM	completely blocked	–	–	CCCCCCc1c(C(=O)CC(C)CC(=O)O)c2cc(Cl)ccc2n1C (racemic) [Compound 60, 5-(5-Chloro-2-hexyl-1-methyl-1H-indol-3-yl)-3-methyl-5-oxo-pentanoic acid]	not to LTB4
0.82 µM	0.46 µM	0.09 µM	–	0.09 µM	0.09 µM	CCCCCCc1cc2ccccc2n1C(=O)CC(C)CC(=O)O (stereo not shown) [Compound 2, 5-(2-Hexyl-indol-1-yl)-3-methyl-5-oxo-pentanoic acid]	–
